The pIC50 is the negative decadic logarithm of the IC50, by convention in mol/L.

pIC50: −log10 of the molar value.

In the test the target is T1, Tyrosine-protein phosphatase non-receptor type 1 (Homo sapiens, UniProt P18031).
T1 sequence (P18031 whole entry): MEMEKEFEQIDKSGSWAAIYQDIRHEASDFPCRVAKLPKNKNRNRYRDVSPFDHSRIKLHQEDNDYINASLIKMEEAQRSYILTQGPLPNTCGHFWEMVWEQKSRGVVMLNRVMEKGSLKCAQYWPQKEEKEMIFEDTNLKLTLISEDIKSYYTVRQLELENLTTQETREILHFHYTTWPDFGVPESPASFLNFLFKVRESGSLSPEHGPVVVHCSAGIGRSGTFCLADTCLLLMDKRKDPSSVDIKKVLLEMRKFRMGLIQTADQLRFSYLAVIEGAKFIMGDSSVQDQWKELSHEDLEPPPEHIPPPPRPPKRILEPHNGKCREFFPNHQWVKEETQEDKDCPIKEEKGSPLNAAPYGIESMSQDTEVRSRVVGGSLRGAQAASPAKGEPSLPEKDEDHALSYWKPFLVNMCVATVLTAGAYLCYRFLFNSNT
Nature of the test: Inhibition of human recombinant PTP1B using p-nitrophenyl phosphate as substrate assessed as p-nitrophenol release after 30 mins.
For the compound `C=C1CC[C@]2(C(=O)O)CC[C@]3(C)C(=CC[C@@H]4[C@@]5(C)CC[C@H](O)[C@@](C)(CO)[C@@H]5CC[C@]43C)[C@@H]2[C@H]1C` [RHODODENDRIC ACID A], the pIC50 is 5.20.
The same measure for `CCCCCCCCCCCCCCCC(=O)C1=C(O)[C@@H](CO)OC1=O`: 5.40.
Take `C[C@H]1[C@H](C)CC[C@]2(C(=O)O)CC[C@]3(C)C(=CC[C@@H]4[C@@]5(C)CC[C@H](O)[C@@](C)(CO)[C@@H]5CC[C@]43C)[C@H]12`: the pIC50 is 5.13.
In the case of `C[C@@H]1CC[C@]2(C(=O)O)CC[C@]3(C)C(=CC[C@@H]4[C@@]5(C)CC[C@H](O)[C@@](C)(CO)[C@@H]5CC[C@]43C)[C@@H]2[C@]1(C)O` [ROTUNDIC ACID], the pIC50 was 4.70.
Regarding `C=C1CC[C@]2(C(=O)O)CC[C@]3(C)C(=CC[C@@H]4[C@@]5(C)C[C@@H](O)[C@@H](O)[C@@](C)(CO)[C@@H]5CC[C@]43C)[C@@H]2[C@H]1C`, the pIC50 is 4.76.
In the case of `C[C@H]1[C@H](C)CC[C@]2(C(=O)O)CC[C@]3(C)C(=CC[C@@H]4[C@@]5(C)C[C@@H](O)[C@H](O)C(C)(C)[C@@H]5CC[C@]43C)[C@H]12` [COROSOLIC ACID], the pIC50 is 5.15.
As for `C=C1CC[C@]2(C(=O)O)CC[C@]3(C)C(=CC[C@@H]4[C@@]5(C)C[C@@H](O)[C@H](O)[C@@](C)(CO)[C@@H]5CC[C@]43C)[C@@H]2[C@H]1C` [ACTINIDIC ACID], the pIC50 was 4.74.

Source of the values: ChEMBL document CHEMBL2086257, “Rhododendric acid A, a new ursane-type PTP1B inhibitor from the endangered plant Rhododendron brachycarpum G. Don” (Bioorg Med Chem Lett, 2012).
